Test results from PubChem BioAssay (NCI).
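The compound was tested at five concentrations on cells cultured in 96-well plates, with a 48-hour exposure period. Here, GI50 denotes the concentration required for 50% inhibition of growth. At the TGI there is no net growth.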

How the values were obtained:
Test in all cases: growth of human tumour cells (NCI), 48 h
786-0 renal = test system: 786-0 renal
A549 NSCLC = test system: A549 NSCLC
ACHN renal = test system: ACHN renal
BT-549 breast = test system: BT-549 breast
CAKI-1 renal = test system: CAKI-1 renal
CCRF-CEM leukemia = test system: CCRF-CEM leukemia
COLO 205 colon = test system: COLO 205 colon
DU-145 prostate = test system: DU-145 prostate
EKVX NSCLC = test system: EKVX NSCLC
HCC-2998 colon = test system: HCC-2998 colon
HCT-116 colon = test system: HCT-116 colon
HCT-15 colon = test system: HCT-15 colon
HL-60(TB) leukemia = test system: HL-60(TB) leukemia
HOP-62 NSCLC = test system: HOP-62 NSCLC
HOP-92 NSCLC = test system: HOP-92 NSCLC
HS 578T breast = test system: HS 578T breast
HT29 colon = test system: HT29 colon
IGROV1 ovarian = test system: IGROV1 ovarian
K-562 leukemia = test system: K-562 leukemia
KM12 colon = test system: KM12 colon
LOX IMVI melanoma = test system: LOX IMVI melanoma
M14 melanoma = test system: M14 melanoma
MALME-3M melanoma = test system: MALME-3M melanoma
MCF7 breast = test system: MCF7 breast
MDA-MB-231 breast = test system: MDA-MB-231 breast
MDA-MB-435 = test system: MDA-MB-435
MDA-N = test system: MDA-N
MOLT-4 leukemia = test system: MOLT-4 leukemia
NCI-H226 lung = test system: NCI-H226 lung
NCI-H23 lung = test system: NCI-H23 lung
NCI-H460 lung = test system: NCI-H460 lung
NCI/ADR-RES ovarian = test system: NCI/ADR-RES ovarian
OVCAR-3 ovarian = test system: OVCAR-3 ovarian
OVCAR-4 ovarian = test system: OVCAR-4 ovarian
OVCAR-5 ovarian = test system: OVCAR-5 ovarian
OVCAR-8 ovarian = test system: OVCAR-8 ovarian
PC-3 prostate = test system: PC-3 prostate
RPMI-8226 leukemia = test system: RPMI-8226 leukemia
RXF 393 renal = test system: RXF 393 renal
SF-268 CNS = test system: SF-268 CNS
SF-295 CNS = test system: SF-295 CNS
SF-539 CNS = test system: SF-539 CNS
SK-MEL-2 melanoma = test system: SK-MEL-2 melanoma
SK-MEL-28 melanoma = test system: SK-MEL-28 melanoma
SK-MEL-5 melanoma = test system: SK-MEL-5 melanoma
SK-OV-3 ovarian = test system: SK-OV-3 ovarian
SN12C renal = test system: SN12C renal
SNB-19 CNS = test system: SNB-19 CNS
SNB-75 CNS = test system: SNB-75 CNS
SR leukemia = test system: SR leukemia
T-47D breast = test system: T-47D breast
TK-10 renal = test system: TK-10 renal
U251 CNS = test system: U251 CNS
UACC-257 melanoma = test system: UACC-257 melanoma
UACC-62 melanoma = test system: UACC-62 melanoma
UO-31 renal = test system: UO-31 renal

How did the TGI (786-0 renal) turn out when COc1cccc(/C=C/c2ccc(S(N)(=O)=O)cc2)c1 was run?
Its TGI is 98.2 µM.

What about the GI50 (A549 NSCLC) of the same compound?
The GI50 was 11 µM.

What about the TGI (A549 NSCLC) of the same compound?
Its TGI is greater than 100 µM.

And the GI50 (ACHN renal)?
The GI50 was 7.12 µM.

What about the TGI (ACHN renal) of the same compound?
The TGI was greater than 100 µM.

And the GI50 (BT-549 breast)?
The GI50 was 6.38 µM.

What about the TGI (BT-549 breast) of the same compound?
Its TGI is greater than 100 µM.

What about the GI50 (CAKI-1 renal) of the same compound?
The GI50 was 14.7 µM.

What about the TGI (CAKI-1 renal) of the same compound?
The TGI was greater than 100 µM.

What about the GI50 (CCRF-CEM leukemia) of the same compound?
Its GI50 is 13.6 µM.

And the TGI (CCRF-CEM leukemia)?
Its TGI is greater than 100 µM.

What about the TGI (COLO 205 colon) of the same compound?
The TGI was 42.8 µM.

And the TGI (DU-145 prostate)?
The TGI was greater than 100 µM.

And the TGI (EKVX NSCLC)?
The TGI was greater than 100 µM.

What about the TGI (HCC-2998 colon) of the same compound?
The TGI was 87.2 µM.

And the TGI (HCT-116 colon)?
Its TGI is 21.7 µM.

What about the GI50 (HCT-15 colon) of the same compound?
The GI50 was 3.6 µM.

And the TGI (HCT-15 colon)?
Its TGI is 65.4 µM.

What about the GI50 (HL-60(TB) leukemia) of the same compound?
The GI50 was 10.4 µM.

What about the TGI (HL-60(TB) leukemia) of the same compound?
The TGI was 77.7 µM.

And the TGI (HOP-62 NSCLC)?
The TGI was greater than 100 µM.

What about the GI50 (HOP-92 NSCLC) of the same compound?
The GI50 was 3.29 µM.

What about the TGI (HOP-92 NSCLC) of the same compound?
The TGI was 35.8 µM.

What about the GI50 (HS 578T breast) of the same compound?
The GI50 was 25.5 µM.

What about the TGI (HS 578T breast) of the same compound?
The TGI was 80.1 µM.

And the GI50 (HT29 colon)?
Its GI50 is 0.554 µM.

What about the TGI (HT29 colon) of the same compound?
The TGI was greater than 100 µM.

And the GI50 (IGROV1 ovarian)?
The GI50 was 2.5 µM.

And the TGI (IGROV1 ovarian)?
Its TGI is 28.9 µM.

What about the GI50 (K-562 leukemia) of the same compound?
Its GI50 is 20.6 µM.

And the TGI (K-562 leukemia)?
The TGI was greater than 100 µM.

What about the GI50 (KM12 colon) of the same compound?
The GI50 was 12.2 µM.

And the TGI (KM12 colon)?
Its TGI is greater than 100 µM.

And the GI50 (LOX IMVI melanoma)?
Its GI50 is 30.7 µM.

And the TGI (LOX IMVI melanoma)?
The TGI was greater than 100 µM.

What about the TGI (M14 melanoma) of the same compound?
The TGI was greater than 100 µM.

What about the TGI (MALME-3M melanoma) of the same compound?
The TGI was greater than 100 µM.

And the TGI (MCF7 breast)?
The TGI was greater than 100 µM.

And the TGI (MDA-MB-231 breast)?
Its TGI is 79.6 µM.

What about the GI50 (MDA-MB-435) of the same compound?
The GI50 was 17.4 µM.

What about the TGI (MDA-MB-435) of the same compound?
Its TGI is greater than 100 µM.

What about the TGI (MDA-N) of the same compound?
Its TGI is greater than 100 µM.

What about the GI50 (MOLT-4 leukemia) of the same compound?
Its GI50 is 26.8 µM.

What about the TGI (MOLT-4 leukemia) of the same compound?
Its TGI is greater than 100 µM.

What about the GI50 (NCI-H226 lung) of the same compound?
The GI50 was 2.91 µM.

What about the TGI (NCI-H226 lung) of the same compound?
Its TGI is 17.5 µM.

And the GI50 (NCI-H23 lung)?
The GI50 was 21 µM.

And the TGI (NCI-H23 lung)?
Its TGI is 57.5 µM.

What about the TGI (NCI-H460 lung) of the same compound?
The TGI was greater than 100 µM.

What about the TGI (NCI/ADR-RES ovarian) of the same compound?
The TGI was greater than 100 µM.

What about the TGI (OVCAR-3 ovarian) of the same compound?
Its TGI is 27.5 µM.

What about the GI50 (OVCAR-4 ovarian) of the same compound?
The GI50 was 25 µM.

What about the TGI (OVCAR-4 ovarian) of the same compound?
The TGI was greater than 100 µM.

What about the TGI (OVCAR-5 ovarian) of the same compound?
The TGI was greater than 100 µM.

What about the GI50 (OVCAR-8 ovarian) of the same compound?
The GI50 was 31.6 µM.

And the TGI (OVCAR-8 ovarian)?
Its TGI is greater than 100 µM.

And the TGI (PC-3 prostate)?
The TGI was greater than 100 µM.

And the GI50 (RPMI-8226 leukemia)?
The GI50 was 3.81 µM.

And the TGI (RPMI-8226 leukemia)?
The TGI was 19.8 µM.

And the TGI (RXF 393 renal)?
Its TGI is greater than 100 µM.

What about the GI50 (SF-268 CNS) of the same compound?
The GI50 was 17.1 µM.

And the TGI (SF-268 CNS)?
Its TGI is greater than 100 µM.

What about the TGI (SF-295 CNS) of the same compound?
Its TGI is greater than 100 µM.

What about the GI50 (SF-539 CNS) of the same compound?
Its GI50 is 16.8 µM.

What about the TGI (SF-539 CNS) of the same compound?
The TGI was 77.6 µM.

What about the TGI (SK-MEL-2 melanoma) of the same compound?
The TGI was 36.8 µM.

What about the TGI (SK-MEL-28 melanoma) of the same compound?
The TGI was greater than 100 µM.

What about the TGI (SK-MEL-5 melanoma) of the same compound?
Its TGI is 66.8 µM.

And the TGI (SK-OV-3 ovarian)?
The TGI was greater than 100 µM.

And the TGI (SN12C renal)?
The TGI was 89.6 µM.

What about the TGI (SNB-19 CNS) of the same compound?
Its TGI is greater than 100 µM.

What about the TGI (SNB-75 CNS) of the same compound?
The TGI was 91.2 µM.

What about the GI50 (SR leukemia) of the same compound?
The GI50 was 5.21 µM.

What about the TGI (SR leukemia) of the same compound?
The TGI was 40.8 µM.

What about the TGI (T-47D breast) of the same compound?
The TGI was greater than 100 µM.

What about the TGI (TK-10 renal) of the same compound?
Its TGI is 90 µM.

And the GI50 (U251 CNS)?
The GI50 was 5.54 µM.

What about the TGI (U251 CNS) of the same compound?
Its TGI is greater than 100 µM.

What about the TGI (UACC-257 melanoma) of the same compound?
The TGI was 60.9 µM.

And the GI50 (UACC-62 melanoma)?
The GI50 was 14 µM.

And the TGI (UACC-62 melanoma)?
Its TGI is 58.9 µM.

What about the TGI (UO-31 renal) of the same compound?
The TGI was greater than 100 µM.
